Test results published in ChEMBL document CHEMBL4840372, “Talarodrides A-F, Nonadrides from the Antarctic Sponge-Derived Fungus Talaromyces sp. HDN1820200” (J Nat Prod, 2021).
In brackets after ≈: the same amount, converted by molar mass.

What was measured:
[1] = tested on: Acinetobacter baumannii; assay: Antimicrobial activity against Acinetobacter baumannii assessed as reduction in bacterial growth by agar dilution method; type: functional
[2] = tested on: Bacillus subtilis; assay: Antimicrobial activity against Bacillus subtilis assessed as reduction in bacterial growth by agar dilution method; type: functional
[3] = tested on: MGC-803; assay: Cytotoxicity against human MGC-803 cells assessed as reduction in cell viability by SRB assay; type: functional, cell-based
[4] = tested on: Edwardsiella tarda; assay: Antimicrobial activity against Edwardsiella tarda assessed as reduction in bacterial growth by agar dilution method; type: functional
[5] = tested on: ASPC1; assay: Cytotoxicity against human ASPC1 cells assessed as reduction in cell viability by SRB assay; type: functional, cell-based
[6] = tested on: HeLa; assay: Cytotoxicity against human HeLa cells assessed as reduction in cell viability by SRB assay; type: functional, cell-based
[7] = tested on: Mycolicibacterium phlei; assay: Antimicrobial activity against Mycobacterium phlei assessed as reduction in bacterial growth by agar dilution method; type: functional
[8] = tested on: Staphylococcus; assay: Antimicrobial activity against methicillin-resistant coagulase-negative Staphylococci assessed as reduction in bacterial growth by agar dilution method; type: functional
[9] = tested on: PC-3; assay: Cytotoxicity against human PC-3 cells assessed as reduction in cell viability by SRB assay; type: functional, cell-based
[10] = tested on: GES1; assay: Cytotoxicity against human GES1 cells assessed as reduction in cell viability by SRB assay; type: functional, cell-based
[11] = tested on: A549; assay: Cytotoxicity against human A549 cells assessed as reduction in cell viability by SRB assay; type: functional, cell-based
[12] = Cytotoxicity against human HO-8910 cells assessed as reduction in cell viability by SRB assay; type: functional, cell-based
[13] = tested on: MDA-MB-231; assay: Cytotoxicity against human MDA-MB-231 cells assessed as reduction in cell viability by SRB assay; type: functional, cell-based
[14] = tested on: SH-SY5Y; assay: Cytotoxicity against human SH-SY5Y cells assessed as reduction in cell viability by SRB assay; type: functional, cell-based
[15] = tested on: NCI-H446; assay: Cytotoxicity against human NCI-H446 cells assessed as reduction in cell viability by SRB assay; type: functional, cell-based
[16] = tested on: K562; assay: Cytotoxicity against human K562 cells assessed as reduction in cell viability by MTT assay; type: functional, cell-based
[17] = tested on: Bel-7402; assay: Cytotoxicity against human Bel-7402 cells assessed as reduction in cell viability by SRB assay; type: functional, cell-based
[18] = tested on: Bacillus cereus; assay: Antimicrobial activity against Bacillus cereus assessed as reduction in bacterial growth by agar dilution method; type: functional
[19] = tested on: HCT-116; assay: Cytotoxicity against human HCT-116 cells assessed as reduction in cell viability by SRB assay; type: functional, cell-based
[20] = tested on: Staphylococcus aureus; assay: Antimicrobial activity against methicillin-resistant Staphylococcus aureus assessed as reduction in bacterial growth by agar dilution method; type: functional
[21] = tested on: L02; assay: Cytotoxicity against human L02 cells assessed as reduction in cell viability by SRB assay; type: cell-based
[22] = tested on: Vibrio parahaemolyticus; assay: Antimicrobial activity against Vibrio parahaemolyticus assessed as reduction in bacterial growth by agar dilution method; type: functional
[23] = tested on: Proteus mirabilis; assay: Antimicrobial activity against Proteus mirabilis assessed as reduction in bacterial growth by agar dilution method; type: functional
[24] = tested on: Escherichia coli; assay: Antimicrobial activity against Escherichia coli assessed as reduction in bacterial growth by agar dilution method; type: functional
[25] = tested on: U-87 MG; assay: Cytotoxicity against human U87 cells assessed as reduction in cell viability by SRB assay; type: functional, cell-based, U-87MG ATCC
[26] = tested on: MCF7; assay: Cytotoxicity against human MCF7 cells assessed as reduction in cell viability by SRB assay; type: functional, cell-based

Row | SMILES | MIC [1] [µM] | MIC [2] [µM] | IC50 [3] [µM] | MIC [4] [µM] | IC50 [5] [µM] | IC50 [6] [µM] | MIC [7] [µM] | MIC [8] [µM] | IC50 [9] [µM] | IC50 [10] [µM] | IC50 [11] [µM] | IC50 [12] [µM] | IC50 [13] [µM] | IC50 [14] [µM] | IC50 [15] [µM] | MIC [18] [µM] | MIC [20] [µM] | MIC [22] [µM] | MIC [23] [µM] | MIC [24] [µM] | further results
1 | CCCC[C@H]1CC2C([C@@H](O)C(=O)[C@H](O)CCC)C=C3C4(OC(=O)[C@]3(C)CC3=C(C(=O)OC3=O)C24)O1 (stereo partly specified) | > 50 | > 50 | > 30 | > 50 | > 30 | > 30 | > 50 | > 50 | > 30 | > 30 | > 30 | > 30 | > 30 | > 30 | > 30 | > 50 | > 50 | > 50 | > 50 | > 50 | IC50 [16]: > 30 µM; IC50 [17]: > 30 µM; IC50 [19]: > 30 µM; IC50 [21]: > 30 µM; IC50 [25]: > 30 µM; IC50 [26]: > 30 µM
2 | O=C(O)c1cn(C2CC2)c2cc(N3CCNCC3)c(F)cc2c1=O [CIPROFLOXACIN] | 25 (≈ 8.28 µg/mL) | 0.195 (≈ 0.0646 µg/mL) | – | 0.0245 (≈ 0.00812 µg/mL) | – | – | 0.195 (≈ 0.0646 µg/mL) | 25 (≈ 8.28 µg/mL) | – | – | – | – | – | – | – | 0.78 (≈ 0.258 µg/mL) | 25 (≈ 8.28 µg/mL) | 0.39 (≈ 0.129 µg/mL) | 0.098 (≈ 0.0325 µg/mL) | 25 (≈ 8.28 µg/mL) | –
3 | CCCCCCC1C([C@@H](O)C(=O)[C@H](O)CCC)C=C2C3(O)OC(=O)[C@]2(C)CC2=C(C(=O)OC2=O)C13 (stereo partly specified) | > 50 | > 50 | > 30 | > 50 | > 30 | > 30 | > 50 | > 50 | > 30 | > 30 | > 30 | > 30 | > 30 | > 30 | > 30 | > 50 | > 50 | > 50 | 12.5 (≈ 6.13 µg/mL) | > 50 | IC50 [16]: > 30 µM; IC50 [17]: > 30 µM; IC50 [19]: > 30 µM; IC50 [21]: > 30 µM; IC50 [25]: > 30 µM; IC50 [26]: > 30 µM
4 | CCCCCCC1C2C(=O)C(=CC1[C@@H](O)C(=O)[C@H](O)CCC)[C@](C)(C(=O)OC)CC1=C2C(=O)OC1=O (stereo partly specified) | > 50 | > 50 | > 30 | > 50 | > 30 | > 30 | > 50 | > 50 | > 30 | > 30 | > 30 | > 30 | > 30 | > 30 | > 30 | > 50 | > 50 | > 50 | > 50 | > 50 | IC50 [16]: > 30 µM; IC50 [17]: > 30 µM; IC50 [19]: > 30 µM; IC50 [21]: > 30 µM; IC50 [25]: > 30 µM; IC50 [26]: > 30 µM
5 | CCCCCCC1C([C@@H](O)C(=O)[C@H](O)CCC)C=C2C3(OC)OC(=O)[C@]2(C)CC2=C(C(=O)OC2=O)C13 (stereo partly specified) | > 50 | > 50 | > 30 | > 50 | > 30 | > 30 | > 50 | > 50 | > 30 | > 30 | > 30 | > 30 | > 30 | > 30 | > 30 | > 50 | > 50 | 6.13 (≈ 3.09 µg/mL) | 3.13 (≈ 1.58 µg/mL) | > 50 | IC50 [16]: > 30 µM; IC50 [17]: > 30 µM; IC50 [19]: > 30 µM; IC50 [21]: > 30 µM; IC50 [25]: > 30 µM; IC50 [26]: > 30 µM
6 | CCCCCCC1C2C(=O)C(=CC1[C@@H](O)C(=O)[C@H](O)CCC)[C@@H](C)CC1=C2C(=O)OC1=O (stereo partly specified) | > 50 | > 50 | > 30 | > 50 | > 30 | > 30 | > 50 | > 50 | > 30 | > 30 | > 30 | > 30 | > 30 | > 30 | > 30 | > 50 | > 50 | > 50 | > 50 | > 50 | IC50 [16]: > 30 µM; IC50 [17]: > 30 µM; IC50 [19]: > 30 µM; IC50 [21]: > 30 µM; IC50 [25]: > 30 µM; IC50 [26]: > 30 µM
7 | CCCCCCC1C([C@@H](O)C(=O)[C@H](C)CCC)C=C2C3(OC)OC(=O)[C@]2(C)CC2=C(C(=O)OC2=O)C13 (stereo partly specified) | > 50 | > 50 | > 30 | > 50 | > 30 | > 30 | > 50 | > 50 | > 30 | > 30 | > 30 | > 30 | > 30 | > 30 | > 30 | > 50 | > 50 | > 50 | > 50 | > 50 | IC50 [16]: > 30 µM; IC50 [17]: > 30 µM; IC50 [19]: > 30 µM; IC50 [21]: > 30 µM; IC50 [25]: > 30 µM; IC50 [26]: > 30 µM
